We go through eleven compounds from patent US20060241177A1, “Novel compounds, pharmaceutical compositions containing same, and methods of use for same” (priority 2002, published 2006).

Holding throughout (type): cell-based
The test system of assay [1] is MCF-7 human breast cancer cells. Nature of the assay: Crystal violet cell growth assay. The note with it: MCF7, MCF-7 cells, 72 hours, read-out: Cr. Violet (IC50). How it is done:
Crystal Violet Cell Growth Assay
The crystal violet assay measures cell growth but not cytotoxicity. This assay employs crystal violet staining of fixed cells in 96-well plates with subsequent solubilization and measurement of OD490 on a spectrophotometer. The OD490 corresponds to cell growth per unit time measured. Cells are treated with the compounds of interest or vehicle controls and IC50 for each compound is computed.
To measure the cytotoxicity of specific compounds against cancer cells, 5×10^4 MCF-7 human breast cancer cells, obtained from the American Type Culture Collection are plated per well in 24 well plates in DMEM medium with 10% fetal bovine serum, penicillin, and streptomycin. Following overnight culture at 37° C. and 5% CO2, the compounds to be tested, dissolved in DMSO, are added to the wells in 1 μl volume at the following concentrations: 50, 40, 30, 20, and 10 μg/ml in triplicate. Additional concentrations are tested if required. 1 μl of DMSO is added to triplicate wells as the vehicle control. C75 is run at 10, and 5 μg/ml in triplicate as positive controls.
After 72 hours of incubation, cells are stained with 0.5 ml of Crystal Violet stain (0.5% in 25% methanol) in each well. After 10 minutes, wells are rinsed, air dried, and then solubilized with 0.5 ml 10% sodium dodecylsulfate with shaking for 2 hours. Following transfer of 100 μl from each well to a 96-well plate, plates are read at OD490 on a Molecular Devices SpectraMax Plus Spectrophotometer Average OD490 values are computed using SOFTmax Pro Software (Molecular Devices) and IC50 values are determined by linear regression analysis using Prism version 3.02 (Graph Pad Software, San Diego).

Assay [2] concerns Enterococcus faecalis (ATCC #29212). Description: Broth microdilution MIC. To be noted: 24 hours; for MIC: Enterococcus faecalis, ATCC29212. How it is done:
(§1) A broth microdilution assay is used to assess the antimicrobial activity of the compounds. Compounds are tested at twofold serial dilutions, and the concentration that inhibits visible growth (OD600 at 10% of control) is defined as the MIC. Microorganisms tested include Staphylococcus aureus (ATCC #29213), Enterococcus faecalis (ATCC #29212), Pseudomonas aeruginosa (ATCC #27853), and Escherichia coli (ATCC #25922). The assay is performed in two growth media, Mueller Hinton Broth and Trypticase Soy Broth.
(§2) A blood (Tsoy/5% sheep blood) agar plate is inoculated from frozen stocks maintained in T soy broth containing 10% glycerol and incubated overnight at 37° C. Colonies are suspended in sterile broth so that the turbidity matches the turbidity of a 0.5 McFarland standard. The inoculum is diluted 1:10 in sterile broth (Mueller Hinton or Trypticase soy) and 195 ul is dispensed per well of a 96-well plate. The compounds to be tested, dissolved in DMSO, are added to the wells in 5 ul volume at the following concentrations: 25, 12.5, 6.25, 3.125, 1.56 and 0.78 ug/ml in duplicate. Additional concentrations are tested if required. 5 ul of DMSO added to duplicate wells are the vehicle control. Serial dilutions of positive control compounds, vancomycin (E. faecalis and S. aureus) and tobramycin (E. coli and P. aeruginosa), are included in each rum
(§3) After 24 hours of incubation at 37° C., plates are read at OD600 on a Molecular Devices SpectraMax Plus Spectrophotometer. Average OD600 values are computed using SOFTmax Pro Software (Molecular Devices) and MIC values are determined by linear regression analysis using Prism version 3.02 (Graph Pad Software, San Diego). The MIC is defined as the concentration of compound required to produce an OD600 reading equivalent to 10% of the vehicle control reading.

In assay [3] the test system is Staphylococcus aureus (ATCC #29213). Description: Broth microdilution MIC. The note with it: 24 hours; for MIC: Staphylococcus aureus, ATCC29213. How it is done: as §1, §2, §3
(Broth dilution looks for growth in wells or tubes with falling amounts of substance.)

In assay [4] the test system is Pseudomonas aeruginosa (ATCC #27853). Description: Broth microdilution MIC. To be noted: 24 hours; for MIC: Pseudomonas aeruginosa, ATCC27853. How it is done: as §1, §2, §3
Assay [5] concerns Escherichia coli (ATCC #25922). Nature of the assay: Broth microdilution MIC. The note with it: 24 hours; for MIC: Escherichia coli, ATCC25922. How it is done:
as §1, §2, §3

The mark [6] stands for this setting: Mueller Hinton Broth, read-out: EF/MH (MIC).
Setting [7] is: Trypticase Soy Broth, read-out: EF/Tsoy (MIC).
[8] abbreviates: Mueller Hinton Broth, read-out: SA/MH (MIC).
Setting [9] is: Trypticase Soy Broth, read-out: SA/Tsoy (MIC).
The mark [10] stands for this setting: Mueller Hinton Broth, read-out: PSAE/MH (MIC).
The mark [11] stands for this setting: Trypticase Soy Broth, read-out: PSAE/Tsoy (MIC).
[12] abbreviates: Trypticase Soy Broth, read-out: Ecoli/Tsoy (MIC).

≈ marks a conversion by molar mass, not a printed value. Where two headings read alike, the source gives them in different places.

Usually IC50 stands for the concentration at which inhibition is half-maximal. Take `CCCCCCCCC1OC(=O)[C@@H](C)[C@H]1C(=O)O` (some centres unmarked): in assay [1], the IC50 was over 50 µg/mL.

As to `CCCCCCCCC1OC(=O)[C@H](C)[C@H]1C(=O)O` (some centres unmarked), the IC50 in assay [1] was 49 µg/mL (≈ 191 µM). Moreover, the MIC in assay [2] (setting [6]) worked out at 109 µg/mL (≈ 425 µM); in assay [2] (setting [7]), 94 µg/mL (≈ 367 µM); in assay [3] (setting [8]), 43 µg/mL (≈ 168 µM); in assay [3] (setting [9]) it was 60 µg/mL (≈ 234 µM). The “PSAE/MH (MIC)” value in assay [4] (Mueller Hinton Broth) is “Neg”. In addition, in assay [4] (Trypticase Soy Broth), the “PSAE/Tsoy (MIC)” value is on record as “Neg”. In addition, in assay [5] (Mueller Hinton Broth), the “Ecoli/MH (MIC)” value is on record as “Neg”. The “Ecoli/Tsoy (MIC)” value in assay [5] (Trypticase Soy Broth) was “Neg”.

Turning to `C=CCNC(=O)C1=C(C)C(=O)O[C@H]1CCCCCCCC`, in assay [1], the concentration for half-maximal inhibition (IC50) is 23.7 µg/mL (≈ 80.8 µM). In addition, the MIC was 115 µg/mL (≈ 392 µM) in assay [2] (setting [6]); 203 µg/mL (≈ 692 µM) in assay [2] (setting [7]); 79 µg/mL (≈ 269 µM) in assay [3] (setting [8]); 87 µg/mL (≈ 297 µM) in assay [3] (setting [9]); 280 µg/mL (≈ 954 µM) in assay [4] (setting [10]); 137 µg/mL (≈ 467 µM) in assay [4] (setting [11]). Further, the MIC in assay [5] (setting [12]) came out at 199 µg/mL (≈ 678 µM). Also, the “Ecoli/MH (MIC)” value in assay [5] (Mueller Hinton Broth) is recorded as “Neg”.

`C=CCNC(=O)[C@@H]1C(=C)C(=O)O[C@H]1CCCCCCCC` (racemic): the IC50 in assay [1] was determined as 0.9 ± 0.5 µg/mL (≈ 3.07 µM). The MIC in assay [2] (setting [6]) came to 36 µg/mL (≈ 123 µM); in assay [2] (setting [7]) it was 25 µg/mL (≈ 85.2 µM); in assay [3] (setting [8]), 9.1 ± 1.9 µg/mL (≈ 31 µM); in assay [3] (setting [9]), 12 ± 0.5 µg/mL (≈ 40.9 µM). The “PSAE/MH (MIC)” value in assay [4] (Mueller Hinton Broth) was “Neg”. Besides, the “PSAE/Tsoy (MIC)” value in assay [4] (Trypticase Soy Broth) is recorded as “Neg”.

For the compound `C=CCNC(=O)[C@H]1[C@H](CCCCCCCC)OC(=O)[C@H]1C` (racemic), the IC50 in assay [1] was determined as 43.9 ± 4.8 µg/mL (≈ 149 µM). Further, the MIC in assay [2] (setting [6]) is 91 µg/mL (≈ 308 µM); in assay [2] (setting [7]) it was 114 µg/mL (≈ 386 µM); in assay [3] (setting [8]) it was 107 µg/mL (≈ 362 µM); in assay [5] (Mueller Hinton Broth, read-out: Ecoli/MH (MIC)), 108 µg/mL (≈ 366 µM). Also, the “SA/Tsoy (MIC)” value in assay [3] (Trypticase Soy Broth) was “Neg”. Further, in assay [4] (Mueller Hinton Broth), the “PSAE/MH (MIC)” value is reported as “Neg”. The “PSAE/Tsoy (MIC)” value in assay [4] (Trypticase Soy Broth) was “Neg”. Moreover, the “Ecoli/Tsoy (MIC)” value in assay [5] (Trypticase Soy Broth) is given as “Neg”.

As to `C=CCNC(=O)[C@H]1[C@H](CCCCCCCC)OC(=O)[C@@H]1C` (racemic), the IC50 in assay [1] was determined as 30 µg/mL (≈ 102 µM). The MIC in assay [2] (setting [6]) is 84 µg/mL (≈ 284 µM); in assay [3] (setting [8]) it was 80 µg/mL (≈ 271 µM); in assay [3] (setting [9]) it was 193 µg/mL (≈ 653 µM); in assay [4] (setting [10]), 218 µg/mL (≈ 738 µM); in assay [4] (setting [11]) it was 160 µg/mL (≈ 542 µM); in assay [5] (setting [12]), 155 µg/mL (≈ 525 µM). In assay [2] (Trypticase Soy Broth), the “EF/Tsoy (MIC)” value was “Neg”. Besides, the “Ecoli/MH (MIC)” value in assay [5] (Mueller Hinton Broth) was “Neg”.

Consider `C=CCNC(=O)[C@@H]1C(=C)C(=O)O[C@H]1CCCCCC` (racemic), for which the concentration for half-maximal inhibition (IC50) in assay [1] is 0.85 ± 0.08 µg/mL (≈ 3.2 µM). Moreover, the MIC in assay [2] (setting [6]) was 103 µg/mL (≈ 388 µM); in assay [2] (setting [7]), 38 µg/mL (≈ 143 µM); in assay [3] (setting [8]), 49 µg/mL (≈ 185 µM); in assay [3] (setting [9]), 47 µg/mL (≈ 177 µM). Moreover, the “PSAE/MH (MIC)” value in assay [4] (Mueller Hinton Broth) is “Neg”. In addition, the “PSAE/Tsoy (MIC)” value in assay [4] (Trypticase Soy Broth) is listed as “Neg”. Also, the “Ecoli/MH (MIC)” value in assay [5] (Mueller Hinton Broth) is on record as “Neg”. Also, in assay [5] (Trypticase Soy Broth), the “Ecoli/Tsoy (MIC)” value is on record as “Neg”.

Turning to `C=CCNC(=O)[C@@H]1C(=C)C(=O)O[C@H]1CCCC` (racemic), in assay [1], the concentration for half-maximal inhibition (IC50) worked out at 2.2 ± 0.3 µg/mL (≈ 9.27 µM). Besides, the MIC in assay [2] (setting [6]) was 190 µg/mL (≈ 801 µM); in assay [2] (setting [7]), 67 µg/mL (≈ 282 µM); in assay [3] (setting [8]) it was 65 µg/mL (≈ 274 µM); in assay [3] (setting [9]), 96 µg/mL (≈ 405 µM). Also, the “PSAE/MH (MIC)” value in assay [4] (Mueller Hinton Broth) is on record as “Neg”. For the same compound, in assay [4] (Trypticase Soy Broth), the “PSAE/Tsoy (MIC)” value is recorded as “Neg”. For the same compound, the “Ecoli/MH (MIC)” value in assay [5] (Mueller Hinton Broth) is recorded as “Neg”. Besides, in assay [5] (Trypticase Soy Broth), the “Ecoli/Tsoy (MIC)” value is “Neg”.

In the case of `C=C1C(=O)O[C@@H](CCCCCCCC)[C@@H]1C(=O)NCCO` (racemic), the IC50 in assay [1] amounted to 2.2 ± 1 µg/mL (≈ 7.4 µM). For the same compound, the MIC in assay [2] (setting [7]) is 77 µg/mL (≈ 259 µM); in assay [3] (setting [8]), 44 µg/mL (≈ 148 µM); in assay [3] (setting [9]) it was 48 µg/mL (≈ 161 µM). For the same compound, the “EF/MH (MIC)” value in assay [2] (Mueller Hinton Broth) was “Neg”. Also, the “PSAE/MH (MIC)” value in assay [4] (Mueller Hinton Broth) is “Neg”. Further, in assay [4] (Trypticase Soy Broth), the “PSAE/Tsoy (MIC)” value was “Neg”. Also, the “Ecoli/MH (MIC)” value in assay [5] (Mueller Hinton Broth) is recorded as “Neg”. The “Ecoli/Tsoy (MIC)” value in assay [5] (Trypticase Soy Broth) is on record as “Neg”.

As to `C=C1C(=O)O[C@@H](CCCCCCCC)[C@@H]1C(=O)NCC(=O)OC` (racemic), the 50% inhibitory concentration (IC50) in assay [1] came out at 1.3 ± 0.09 µg/mL (≈ 4 µM). Further, the MIC worked out at 80 µg/mL (≈ 246 µM) in assay [2] (setting [6]); 245 µg/mL (≈ 753 µM) in assay [2] (setting [7]); 4.3 µg/mL (≈ 13.2 µM) in assay [3] (setting [8]); 26 µg/mL (≈ 79.9 µM) in assay [3] (setting [9]); 275 µg/mL (≈ 845 µM) in assay [5] (setting [12]). The “PSAE/MH (MIC)” value in assay [4] (Mueller Hinton Broth) was “Neg”. The “PSAE/Tsoy (MIC)” value in assay [4] (Trypticase Soy Broth) is “Neg”. Also, the “Ecoli/MH (MIC)” value in assay [5] (Mueller Hinton Broth) was “Neg”.

Take `C=C1C(=O)O[C@@H](CCCCCCCC)[C@@H]1C(=O)NCC(=O)O` (racemic): the half-inhibitory concentration (IC50) in assay [1] was over 50 µg/mL. Besides, the MIC in assay [2] (setting [6]) is 219 µg/mL (≈ 703 µM); in assay [2] (setting [7]), 215 µg/mL (≈ 690 µM); in assay [3] (setting [8]), 72 µg/mL (≈ 231 µM); in assay [3] (setting [9]), 52 µg/mL (≈ 167 µM); in assay [5] (setting [12]), 235 µg/mL (≈ 755 µM). Moreover, the “PSAE/MH (MIC)” value in assay [4] (Mueller Hinton Broth) is “Neg”. Further, in assay [4] (Trypticase Soy Broth), the “PSAE/Tsoy (MIC)” value is “Neg”. Also, in assay [5] (Mueller Hinton Broth), the “Ecoli/MH (MIC)” value is “Neg”.
